Experimental data published in patent US20260165953A1, “THE HIPPO PATHWAY AS A PHARMACOLOGIC TARGET FOR TREATING REFRACTIVE DISORDERS” (Centre for Eye and Vision Research Limited, priority 2022, published 2026).

How the values were obtained:
[1] = Signs of toxicity in animal models; format: in vivo
[2] = test system: form-deprivation myopia (FDM) in chicks; experiment: Unilateral form-deprivation myopia (FDM) in chicks, four intravitreal injections every alternate day, 7-day diffuser lens treatment; format: in vivo, White Leghorn chicks (Gallus gallus); conditions: for axial length, mean interocular difference ± SD / refractive error (myopic progression), mean interocular difference ± SD / increase in choroidal thickness compared to the vehicle group / choroidal thickness, mean interocular difference ± SD: after 7-day treatment; for axial length, mean interocular difference ± SD: vehicle 0.75±0.19 mm; for refractive error (myopic progression), mean interocular difference ± SD: vehicle −10.0±2.56 D; for choroidal thickness, mean interocular difference ± SD: vehicle 43.02±8.87 μm
Experimental: XMU-MP-1, known for its reversible and selective inhibition of MST1/2 (upstream to YAP/TAZ), leading to a significant increase in the activity of the Hippo pathway effector YAP, undergoes testing in a dose-dependent manner for its impact on form-deprivation myopia (FDM) in chicks.
White Leghorn chicks (Gallus gallus) from specific pathogen-free eggs (SPF, Jinan, China) are raised in standard cages with adequate food and water, maintaining a temperature of 25° C. and a 12 h:12 h light/dark cycle. The experimental period spans from postnatal 7 days (PN 7) to 14 days (PN 14). A unilateral FDM model is established using a published protocol, involving four intravitreal injections performed every alternate day. Following the first injection, diffuser lenses are attached to the right eye, with lenses covering only the XMU-MP-1 injected eye (unilateral FDM). XMU-MP- 1, dissolved in 10% DMSO with 90% Corn oil, is injected monocularly using a 0.3 mm (30 G)×8 mm needle into the vitreous through the skin, sclera, choroid, and retina close to the margin of the upper orbit. Contralateral eyes receive no lens treatment. Four concentrations of XMU-MP-1 (0.02, 0.2, 2, and 20 mmol/L) are selected for evaluation.
Animals are randomly assigned to five groups, encompassing the FDM with vehicle treatment group (vehicle group, 10% DMSO+90% Corn oil, n=14), FDM with 0.02 mmol/L XMU-MP-1 treatment group (XMU-MP-1, 0.02 mmol/L group, n=5), FDM with 0.2 mmol/L XMU-MP-1 treatment group (XMU-MP-1, 0.2 mmol/L group, n=5), FDM with 2 mmol/L XMU-MP-1 treatment group (XMU-MP-1, 2 mmol/L group, n=13), and FDM with 20 mmol/L XMU-MP-1 treatment group (XMU-MP-1, 20 mmol/L group, n=14).
Refractive errors are assessed using a streak retinoscope, and ocular parameters are measured with a high-frequency A-scan ultrasound system equipped with a 30 MHz transducer (Panametrics, Inc., Waltham, MA) before and after treatment. The spherical equivalent (S.E.) is derived from the refractive status (S.E.=spherical power+½ cylindrical power), and axial length is defined from the front of the cornea to the back of the vitreous chamber.
For statistical analysis, after the 7-day lens treatment period, interocular differences (the difference between the diffuser-treated eyes and the contralateral fellow eyes) are calculated for six ocular parameters (refractive error, anterior chamber depth, lens thickness, vitreous chamber depth (FIG. 4B), axial length, and choroidal thickness). Mean interocular differences±SD are presented, and the significance of the dose-effect is analyzed using ANOVA. Post hoc testing (Dunnett's method) is employed where appropriate, with significance levels denoted as follows: ns, not significant; *, P<0.05; **, P<0.01; ****, P<0.0001.

[3] = 2 mmol/L XMU-MP-1 intravitreal, n=13, P<0.001
[4] = 20 mmol/L XMU-MP-1 intravitreal, n=14, P<0.0001

CN1C(=O)c2sccc2N(C)c2nc(Nc3ccc(S(N)(=O)=O)cc3)ncc21 [XMU-MP-1]
signs of toxicity [1]: no discernible signs of toxicity
axial length, mean interocular difference ± SD ([2]; 0.02 mmol/L XMU-MP-1 intravitreal, n=5): 0.73±0.13 mm
axial length, mean interocular difference ± SD ([2]; 0.2 mmol/L XMU-MP-1 intravitreal, n=5, P<0.001): 0.41±0.24 mm
refractive error (myopic progression), mean interocular difference ± SD ([2]; 0.2 mmol/L XMU-MP-1 intravitreal, n=5, P<0.01): −6.05±2.97 D
inhibition of myopia, based on refractive error and axial length data ([2]; 0.2 mmol/L group): about 40%
increase in choroidal thickness compared to the vehicle group ([2]; 2 mmol/L XMU-MP-1 intravitreal): about 50%
axial length, mean interocular difference ± SD [2, 3]: 0.36±0.20 mm
choroidal thickness, mean interocular difference ± SD [2, 3]: 22.07±15.13 μm
refractive error (myopic progression), mean interocular difference ± SD ([2]; 2 mmol/L XMU-MP-1 intravitreal, n=13, P<0.0001): −4.69±2.75 D
inhibition of myopia, based on refractive error and axial length data ([2]; 2 mmol/L group): about 53%
increase in choroidal thickness compared to the vehicle group ([2]; 20 mmol/L XMU-MP-1 intravitreal): ~70%
axial length, mean interocular difference ± SD [2, 4]: 0.27±0.22 mm
choroidal thickness, mean interocular difference ± SD [2, 4]: 12.83±17.96 μm
refractive error (myopic progression), mean interocular difference ± SD [2, 4]: −3.51±2.89 D
suppression of myopia development ([2]; highest dose tested (200 nmol)): about 65%
inhibition of lens-induced myopia ([2]; intravitreal injection): robustly inhibits lens-induced myopia
suppression of myopia progression, dose dependence ([2]; intravitreal injection, 0.02-20 mmol/L, ANOVA significant dose-response effect (p<0.0001)): can suppress myopia progression through intravitreal injection in a dose-dependent manner
